One assay concerns the target ScinGOBP2 (Semiothisa cinerearia, UniProt A0A889XLB8). Put plainly: Fluorescence-based competitive binding assay with 1-NPN probe. On the procedure:
A total of 27 volatile compounds were selected for a fluorescence-based competitive binding assay based on previously reported information for S. cinerearia host plants. This experiment was performed on a spectrofluorometer F-380 (Tianjin, China) using slits of 10 nm and a light path of 1 cm. The fluorescent probe N-phenyl-1-naphthylamine (1-NPN) was excited at 337 nm, and emissions were recorded between 390 and 530 nm. The affinity of 1-NPN for ScinGOBP2 was measured by titrating a 2 μM solution of the protein with aliquots of 1 mM 1-NPN in methanol to final concentrations of 1–16 μM. The dissociation constants of 1-NPN and the proteins were calculated using the software GraphPad Prism 8.0. Competitive binding was measured via the titration of the protein/1-NPN (both at 2 μM) mixture by adding aliquots of 1 mM of methanol solution of ligand to final concentrations of 2–30 μM. Dissociation constants of the competitors were calculated using the equation KD = IC50/(1 + [1-NPN]/K1-NPN), where IC50 represents the ligand concentration achieving a 50% decrease in 1-NPN’s initial fluorescence intensity, [1-NPN] represents the free concentration of 1-NPN, and K1-NPN represents the dissociation constant of the complex ScinGOBP2/1-NPN.

The subject of the next assay is female S. cinerearia. The assay can be described thus: Two-choice oviposition preference assay. The format is in vivo, Semiothisa cinerearia. As to conditions: 100 μg in paraffin oil vs solvent control; eggs counted after 48 h. As for the experimental part:
The oviposition preference of female S. cinerearia for the ScinGOBP2 ligands was assessed in a screened enclosure (length/width/height = 86 cm:46 cm:48 cm). To ensure mating of all the female moths, newly emerged males and females were cohabitated in a rearing enclosure (30 cm × 30 cm × 30 cm) at a sex ratio of 1:2 for a period of 2 days. Mated females for subsequent experiments were randomly selected from this enclosure. Each screened cage housed five gravid females. For adult nourishment, a small Petri dish containing 10% honey solution was positioned at the cage’s base center. Test compounds (100 μg, diluted in paraffin oil) or the solvent control (paraffin oil) were applied to a cotton ball, which was then affixed to the opposite inner sides of the cage. After 48 h, the number of eggs deposited on the gauze on both the treatment and control sides was counted. The oviposition preference index was determined using the formula (T − C)/(T + C), where T represents the egg count on the treatment side and C represents the count on the control side. Each experiment was replicated eight times.

The next assay deals with AipsGOBP2. Also on record: method as in PMID 29778539. As to conditions: cited from earlier work.
For another assay, the system named is S. cinerearia antennae. The assay can be described thus: Electroantennogram (EAG) recordings. On the set-up: species or system Semiothisa cinerearia. As to conditions: 10 μL of 10 μg/μL in paraffin oil, control subtracted, n = 12. On the procedure:
Electroantennogram recordings were carried out to measure the antennal responses of S. cinerearia to ScinGOBP2 ligands. The antennae of S. cinerearia adults were carefully removed from the base, and the tips were carefully cut off. The prepared antennae were affixed to electrode holders using conductive electrode gel. Subsequently, a 10 μL aliquot of the test compound (10 μg/μL, diluted in paraffin oil) was applied to a strip of filter paper. This strip was then placed into a 1000 µL pipette tip, serving as a cartridge. The test cartridge was connected to a stimulus controller (CS-55; Syntech, Kirchzarten, Germany) that delivered a 0.5 s stimulus every 30 s at a constant flow rate of 10 mL/s. Antennal signals were recorded using an EAG Pro system (Syntech). In all the experiments, antennae were exposed to a solvent control (paraffin oil) at the beginning and end of a series of sample measurements. Test stimuli were presented in a randomized sequence, interspersed between two control puffs. The EAG responses to the test odors were adjusted by subtracting the mean amplitude of the two control signals. EAG responses were measured from a cohort of twelve insects, each with different antennae (n = 12).

The next assay relates to OachGOBP2. Also on record: method as in PMID 36975901. To be noted: cited from earlier work.
Setting [1] is: KD, competitive displacement of 1-NPN, protein/1-NPN both at 2 μM, ligand 2–30 μM, KD = IC50/(1 + [1-NPN]/K1-NPN), mean ± SE.
[2] abbreviates: competitive displacement of 1-NPN, protein/1-NPN both at 2 μM, ligand 2–30 μM, KD = IC50/(1 + [1-NPN]/K1-NPN), mean ± SE, read-out: KD.

“Also recorded” adds a separate entry of the source. Read-outs that look alike come from different tables or passages of the source.

Sequence of ScinGOBP2 (A0A889XLB8 entry or part of it): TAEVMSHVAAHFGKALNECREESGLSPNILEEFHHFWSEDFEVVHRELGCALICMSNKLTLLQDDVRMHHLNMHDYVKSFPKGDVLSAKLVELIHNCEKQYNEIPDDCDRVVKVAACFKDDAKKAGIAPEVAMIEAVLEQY

`C=C1CCC2CC1C2(C)C` (stereo not drawn) [β-Pinene]: the dissociation constant Kd (usually a measure of binding affinity in units of concentration) on ScinGOBP2 (setting [1]) came out at 13.2 ± 0.19 µM. In addition, the “Oviposition preference of mated females” value in the assay with female S. cinerearia is given as “deter S. cinerearia from ovipositing; also recorded: marked repellent behavioral responses”.
For `CC/C=C\CCO` [cis-3-hexen-1-ol], in the assay with AipsGOBP2, the “binding affinity for AipsGOBP2” value was “high binding affinity”.
As to `CC(=O)CC/C=C(\C)CCC=C(C)C` [Geranyl acetone], the Kd on ScinGOBP2 (setting [2]) was 2.21 ± 0.17 µM. Further, the “Oviposition preference of mated females” value with female S. cinerearia is “deter S. cinerearia from ovipositing; also recorded: marked repellent behavioral responses”.
For `CCCCOC(=O)c1ccccc1C(=O)OCCCC` [dibutyl phthalate], the “binding affinity for AipsGOBP2” value in the assay on AipsGOBP2 was “high binding affinity”.
As to `C=CCCCCCCC` [1-Nonene], the Kd was 12.2 ± 0.44 µM on ScinGOBP2 (setting [1]) and less than 15 µM at ScinGOBP2 (competitive displacement of 1-NPN, protein/1-NPN both at 2 μM, ligand 2–30 μM, KD = IC50/(1 + [1-NPN]/K1-NPN), mean ± SE). In addition, in the assay on female S. cinerearia, the “Oviposition preference of mated females” value is on record as “deter S. cinerearia from ovipositing; also recorded: marked repellent behavioral responses”.
In the case of `CCCCCCCCCC=O` [Decanal], in the assay with S. cinerearia antennae (male antennae), the “EAG mean response value, males” value was 0.063 mV. Besides, the Kd at ScinGOBP2 (setting [2]) worked out at 5.07 ± 0.27 µM. Moreover, the “Oviposition preference of mated females” value in the assay with female S. cinerearia was “significant preference for laying eggs; also recorded: significant attractant behavioral responses”.
As for `C=C(C)[C@H]1CC=C(C)CC1` [Dipentene], the “EAG mean response value, females” value in the assay on S. cinerearia antennae (female antennae) came to 0.086 mV. The Kd on ScinGOBP2 (setting [1]) was 14.9 ± 0.77 µM. For the same compound, in the assay on female S. cinerearia, the “Oviposition preference of mated females” value is reported as “deter S. cinerearia from ovipositing; also recorded: marked repellent behavioral responses”.
Consider `CC/C=C\CCOC(=O)CCC` [cis-3-Hexenyl butyrate], for which, on ScinGOBP2 (setting [2]), the Kd was 14.17 ± 0.04 µM. Also, the “Oviposition preference of mated females” value with female S. cinerearia is recorded as “significant preference for laying eggs; also recorded: significant attractant behavioral responses”.
`C=C1CC/C=C(\C)CC[C@@H]2[C@@H]1CC2(C)C` [β-caryophyllene]: the “binding affinity for AipsGOBP2” value with AipsGOBP2 is given as “high binding affinity”.
With `CC1=CCC2CC1C2(C)C` (stereo not drawn) [α-Pinene], the Kd on ScinGOBP2 (setting [1]) amounted to 9.41 ± 0.28 µM. In the assay with female S. cinerearia, the “Oviposition preference of mated females” value was “significant preference for laying eggs; also recorded: significant attractant behavioral responses”.
`CCCCCCCC/C=C\CCCCCCCC(=O)O` [oleic acid]: the “binding affinity for AipsGOBP2” value with AipsGOBP2 is on record as “high binding affinity”.
Take `CC(C)=CCC/C(C)=C/CC/C(C)=C/CO` [farnesol]: the “binding affinity for OachGOBP2” value in the assay on OachGOBP2 is reported as “high binding affinity”.
On to `CC/C=C\CCOC(=O)CCCC` [cis-3-Hexenyl n-valerate], for which the equilibrium dissociation constant (Kd) at ScinGOBP2 (setting [2]) stood at 6.55 ± 0.18 µM. In addition, the “Oviposition preference of mated females” value with female S. cinerearia is given as “significant preference for laying eggs; also recorded: significant attractant behavioral responses”.
With `c1ccc(Nc2cccc3ccccc23)cc1` [1-NPN, N-phenyl-1-naphthylamine, reference compound], the affinity on ScinGOBP2 (dissociation constant (KD) for the ScinGOBP2/1-NPN complexes, direct titration of 2 μM protein with 1-NPN 1–16 μM), expressed as Kd, was 2.27 µM.
As to `CC1=CC[C@H](C(C)C)C=C1` [α-phellandrene], the “binding affinity for OachGOBP2” value in the assay on OachGOBP2 is recorded as “high binding affinity”.

(Values after article PMC11048283 (Biology, 2024).)
